Series [1] relates to Nilaparvata lugens (brown rice planthopper). Briefly: Example B8: activity against Nilaparvata lugens, sprayed rice seedlings (larvicide, feeding/contact). The following applies: in Oryza sativa, read-out: activity (mortality, growth regulation, effects on F1 generation).
Series [2] relates to Myzus persicae (green peach aphid). Briefly: Example B13: drench activity against Myzus persicae, pea seedlings in field soil. The following applies: 168 h, read-out: drench activity (mortality).
The test system of series [3] is Aonidiella Aurantii (red scale). Briefly: Example B12: activity against Aonidiella aurantii, dipped potato tubers. The series is classed as in vivo. The conditions noted are these: 6-8 weeks after application, read-out: activity (number of crawlers of the next generation). An excerpt:
Activity Against Aonidiella Aurantii (Red Scale)
Treatment of potato tubers by dipping the in the test solution. One day later, tubers are infested with about 50 crawlers. 6-8 weeks after application samples are checked for the number of crawlers of the next generation (compared to the non treated samples).

Series [4] concerns Myzus persicae (green peach aphid). Briefly: Example B2: activity against Myzus persicae, pea seedling roots in test solution (systemic/feeding, curative). The conditions noted are these: 144 h, read-out: activity (mortality).
The subject of series [5] is Tetranychus urticae (two-spotted spider mite). Briefly: Example B4: activity against Tetranychus urticae, sprayed bean leaf discs (feeding/residual contact, preventive). The following applies: foliar, 192 h, read-out: activity (egg, larval and adult mortality).
In series [6] the test system is Aphis Craccivora (cowpea aphid). Briefly: Example B11: translaminar activity against Aphis craccivora on French bean leaves. In kind it is in vivo. The conditions noted are these: 120 h, upper leaf side painted, aphids on lower side, 5 days. On the procedure:
Translaminar Activity Against Aphis Craccivora (Cowpea Aphid)
French bean leaves (Phaseolus vulgaris) are infested with about 20 mixed age individuals on the lower leaf side using clip cages. 1 day after the infestation, the upper side of the leaves is treated with the test solution by painting. 5 days later, samples are checked for mortality.

Series [7] deals with Bemisia tabaci (tobacco white fly). Briefly: Example B7: activity against Bemisia tabaci, sprayed bean plants (larvicide, contact/feeding). The series is classed as in vivo. The following applies: 504 h, bean plants with N-2 nymphs sprayed, three weeks, read-out: activity (efficacy, number of emerged adults). The procedure: Activity Against Bemisia tabaci (Tobacco White Fly)
(Larvicide, Contact/Feeding)
Bean plants are infested with 20-30 adults that were removed after a 4 day egg-laying period. After another 7 days, bean plants with hatched nymphs (N-2) are treated (2 replicates) with the test solutions in a spray chamber. Three weeks later, samples are checked for number of emerged adults. Efficacy was calculated by comparing number of emerged adults in treated and non treated samples.

Series [8] deals with Myzus persicae (green peach aphid). Briefly: Example B1: activity against Myzus persicae, sprayed sunflower leaf discs (feeding/residual contact, preventive). The conditions noted are these: foliar, 144 h, read-out: activity (mortality).
For series [9], the system named is Aphis Craccivora (cowpea aphid). Briefly: Example B10: activity against Aphis craccivora, pea seedling roots in test solution (systemic/feeding). The following applies: 144 h, roots of infested pea seedlings in test solution, 6 days. In kind it is in vivo. An excerpt: (§1) Activity Against Aphis Craccivora (Cowpea Aphid)
(Mixed Population, Systemic/Feeding)

The test system of series [10] is Myzus persicae (green peach aphid). Briefly: Example B17: activity against Myzus persicae on sprayed pepper plants (feeding/residual contact). The series is classed as in vivo. The following applies: 144 h, infested pepper plants sprayed, 6 days.
The subject of series [11] is Aphis Craccivora (cowpea aphid). Briefly: Example B9: activity against Aphis craccivora, sprayed pea seedlings (contact/feeding). In kind it is in vivo. The following applies: 144 h, infested pea seedlings sprayed, 6 days.
Description: as §1
(Mixed Population, Contact/Feeding)
6 days after treatment, samples are checked for mortality.

The test system of series [12] is Frankliniella occidentalis (western flower thrips). Briefly: Example B6: activity against Frankliniella occidentalis, bean leaf discs or bean plants. In kind it is in vivo. The following applies: foliar, 6 days (leaf discs) or 14 days (plants) after infestation, read-out: activity (reduction of treated population). The procedure:
Activity Against Frankliniella occidentalis (Western Flower Thrips)
Bean leaf discs on agar in petri dishes or bean plants in a spray chamber are treated with diluted test solutions. After drying leaf discs are cut and placed in plastic cups on the surface of an agar layer and infested with mixed population. 6 days (leaf discs) or 14 days (plants) after the infestation, samples are checked for reduction of treated population and compared to the non treated population.

Series [13] deals with Thrips tabaci (onion thrips). Briefly: Example B3: activity against Thrips tabaci, sprayed sunflower leaf discs (feeding/residual contact, preventive). The series is classed as in vivo. The conditions noted are these: foliar, 144 h, mixed population, 6 days. An excerpt: Activity Against Thrips tabaci (Onion Thrips)
(Mixed Population, Feeding/Residual Contact Activity, Preventive)

This note sets out measurements from patent US20110224079A1, “SPIROHETEROCYCLIC N-OXYAMIDES AS PESTICIDES” (SYNGENTA CROP PROTECTION LLC, priority 2008, published 2011).

In general, melting point refers to the temperature, or range, at which the solid turns liquid.

`COCON1C(=O)C(c2cc(C)ccc2C)=C(OC(=O)CC(C)(C)C)C12CCN(OC)CC2` [P1.5] had a melting point of 93 to 95 °C.
For the compound `CCOC(=O)OC1=C(c2c(C)cc(C)cc2C)C(=O)N(OCCOC)C12CCN(OC)CC2` [P1.6], the mortality at 400 ppm in series [1], in series [4], in series [5], in series [6] and in series [8] was > 80% each time. Moreover, the mortality at 25 ppm in series [2] was > 80%. Moreover, the pest or weed control at 200 ppm in series [3] and in series [7] was > 80% throughout.
With `CCOC(=O)OC1=C(c2c(C)cc(C)cc2C)C(=O)N(OCC2CCCCO2)C12CCN(OC)CC2` (centres unmarked) [P1.26], the mortality at 400 ppm in series [1], in series [9], in [4], in series [5], in [6] and in series [8] was > 80% throughout. In [11], the mortality at 400 ppm is > 80%. In addition, in series [2], the mortality at 25 ppm is > 80%. In addition, the mortality at 200 ppm in series [10] was ≥ 80%.
In the case of `CCOC(=O)OC1=C(c2c(C)cc(C)cc2C)C(=O)N(OCOCCOC)C12CCN(OC)CC2` [P1.27], the mortality at 400 ppm in [1], in series [9], in series [4], in [5], in series [6] and in [8] was > 80% each time. Further, in [11], the mortality at 400 ppm is > 80%. For the same compound, in [2], the mortality at 25 ppm was > 80%. The pest or weed control at 400 ppm in series [12] is > 80%. In addition, the mortality at 200 ppm in [10] is ≥ 80%.
With `COCON1C(=O)C(c2cc(C)ccc2C)=C(OC)C12CCN(OC)CC2` [P1.31], the melting point was in the range of 91 to 93 °C.
Consider `CCOC(=O)OC1=C(c2ccc(C)cc2C)C(=O)N(OC)C12CCN(OC)CC2` [P1.48], for which the mortality at 400 ppm in [1], in [4], in series [5], in [6], in series [8] and in series [11] was > 80% each time. The mortality at 25 ppm in [2] is > 80%. Also, the mortality at 200 ppm in [10] is ≥ 80%. In addition, in [7], the pest or weed control at 200 ppm was > 80%.
On to `CCOC(=O)OC1=C(c2c(C)ccc(C)c2Cl)C(=O)N(OCCOC)C12CCN(OC)CC2` [P1.60], for which the mortality at 400 ppm in [1], in [9], in [4], in series [5], in series [6] and in series [8] was > 80% throughout. Further, the mortality at 400 ppm in series [11] is > 80%. For the same compound, the mortality at 25 ppm in series [2] was > 80%. Also, in [12], the pest or weed control at 400 ppm was > 80%.
Turning to `CCOC(=O)OC1=C(c2c(F)ccc(C)c2Cl)C(=O)N(OCOC)C12CCN(OC)CC2` [P1.61], the melting point is 116 to 119 °C.
In the case of `CCOC(=O)OC1=C(c2c(C)cc(C)cc2C)C(=O)N(OCC2CCOCC2)C12CCN(OC)CC2` [P1.82], the mortality at 400 ppm in series [1], in [9], in series [4], in series [5], in series [6] and in series [8] was > 80% in each case. Also, in series [11], the mortality at 400 ppm was > 80%. Moreover, in series [2], the mortality at 25 ppm was > 80%. Besides, the mortality at 200 ppm in series [10] was ≥ 80%. Also, the pest or weed control at 200 ppm in [7] is > 80%.
The compound `CCOC(=O)OC1=C(c2c(C)cc(Cl)cc2C)C(=O)N(OC)C12CCN(OC)CC2` [P1.114] displayed a melting point of 122 to 125 °C.
With `CCON1C(=O)C(c2c(C)cc(C)cc2C)=C(O)C12CCN(OC)CC2` [P2.9], the mortality at 400 ppm in series [1], in series [9], in series [4], in [6], in series [8] and in series [11] was > 80% throughout. Besides, the mortality at 25 ppm in [2] is > 80%. In addition, in series [12], the pest or weed control at 400 ppm was > 80%. The mortality at 200 ppm in series [10] is ≥ 80%. In addition, the pest or weed control at 200 ppm in series [7] was > 80%.
For the compound `CON1CCC2(CC1)C(O)=C(c1c(C)cc(C)cc1C)C(=O)N2OCC1CC1` [P2.13], the mortality at 400 ppm in [1], in [13], in series [9], in series [4], in series [5] and in series [6] was > 80% each time. Besides, the mortality at 400 ppm in series [8] and in series [11] was > 80% each time. Moreover, the mortality at 25 ppm in series [2] was > 80%. For the same compound, in series [12], the pest or weed control at 400 ppm is > 80%. The mortality at 200 ppm in series [10] was ≥ 80%.
Consider `COCON1C(=O)C(c2c(C)cc(-c3ccc(Cl)cc3)cc2C)=C(O)C12CCN(OC)CC2` [P2.15, 3-(4′-Chloro-3,5-dimethyl-biphenyl-4-yl)-4-hydroxy-8-methoxy-1-methoxymethoxy-1,8-diaza-spiro[4.5]dec-3-en-2-one], for which the melting point is 128 °C (dec.).
On the same count and under the same terms, next, `CON1CCC2(CC1)C(O)=C(c1c(C)cc(C)cc1C)C(=O)N2OCCOC1CCCCO1` (centres unmarked) [P2.22]: 135 to 137 °C.
As to `COCCOCON1C(=O)C(c2c(C)cc(C)cc2C)=C(O)C12CCN(OC)CC2` [P2.24], the mortality at 400 ppm in [1], in series [9], in series [4], in series [5], in series [6] and in series [8] was > 80% each time. Further, in [11], the mortality at 400 ppm was > 80%. Besides, the mortality at 25 ppm in [2] was > 80%. Moreover, the mortality at 200 ppm in series [10] was ≥ 80%.
`COCON1C(=O)C(c2c(C)cc(C)cc2Cl)=C(O)C12CCN(OC)CC2` [P2.34]: the mortality at 400 ppm in series [1], in series [13], in series [9], in series [4], in series [5] and in [6] was > 80% in each case. Further, the mortality at 400 ppm in series [8] and in [11] was > 80% throughout. Besides, in series [2], the mortality at 25 ppm was > 80%.
`COCON1C(=O)C(c2c(F)ccc(C)c2Cl)=C(O)C12CCN(OC)CC2` [P2.60] came in with a melting point of 155 to 158 °C.
Still for that read-out and setting: next, `COCCON1C(=O)C(c2cc(Br)c(C)cc2C)=C(O)C12CCN(OC)CC2` [P2.73]: 63 to 64 °C.
For the compound `CON1CCC2(CC1)C(O)=C(c1cc(Br)c(C)cc1C)C(=O)N2OC` [P2.75], the melting point lay in the range of 86 to 87 °C.
On the same count and under the same terms, next, `COCCON1C(=O)C(c2cc(Br)c(F)cc2C)=C(O)C12CCN(OC)CC2` [P2.87]: 71 to 74 °C; `COCON1C(=O)C(c2cc(Br)c(F)cc2C)=C(O)C12CCN(OC)CC2` [P2.89]: 64 to 67 °C.
In the case of `CON1CCC2(CC1)C(O)=C(c1c(C)cc(C)cc1C)C(=O)N2OCC1CCCCC1` [P2.96], the melting point was 169 to 172 °C.
On to `COCCON1C(=O)C(c2c(C)cc(Cl)cc2C)=C(O)C12CCN(OC)CC2` [P2.101], for which the melting point was in the range of 161 to 164 °C.
As to `CON1CCC2(CC1)C(O)=C(c1c(C)cc(Cl)cc1C)C(=O)N2OC` [P2.102], the melting point fell in the range of 88 to 92 °C.
Compound `COCON1C(=O)C(c2c(C)cc(Cl)cc2C)=C(O)C12CCN(OC)CC2` [P2.104] showed a melting point of 176 to 178 °C.
The compound `CON1CCC2(CC1)C(O)=C(c1c(C)cc(Cl)cc1C)C(=O)N2OC1CCCO1` (centres unmarked) [P2.105] came in with a melting point of 137 to 139 °C.
